Assay results taken from paper PMC3619390 (Journal of medicinal chemistry, 2012).

Legend:
[1] = tested on: human cells; settings: cited from earlier work
[2] = tested on: HEK293 cells; experiment: Sensitization of cells to MMC; assay type: cell-based, human; settings: HEK293, varying MMC 24 hours then compound 24 hours (Figure 4)
[3] = tested on: HR repair in HEK293 cells; experiment: HR repair efficiency, DR-GFP reporter; assay type: cell-based, human; settings: 24 hours
[4] = target: T1, human RAD51 protein (Homo sapiens, UniProt Q06609); experiment: FP-based DNA binding assay; settings: compound 59 μM, 0.23 μM RAD51 (Figure 2B)
T1 sequence (Q06609 1-339): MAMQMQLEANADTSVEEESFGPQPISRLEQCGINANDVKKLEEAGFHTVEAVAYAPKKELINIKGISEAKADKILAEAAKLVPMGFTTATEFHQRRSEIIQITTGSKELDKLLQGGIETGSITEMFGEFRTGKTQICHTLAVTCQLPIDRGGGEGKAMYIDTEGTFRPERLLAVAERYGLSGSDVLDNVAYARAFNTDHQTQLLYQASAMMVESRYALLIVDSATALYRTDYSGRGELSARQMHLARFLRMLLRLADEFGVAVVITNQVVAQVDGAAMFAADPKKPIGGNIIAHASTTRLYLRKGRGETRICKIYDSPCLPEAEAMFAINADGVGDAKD

[5] = tested on: single-strand annealing (SSA) in HEK293 cells; experiment: SSA repair efficiency, SA-GFP reporter; assay type: cell-based, human; settings: 24 hours
[6] = target: T1, human RAD51 protein; experiment: DNA binding competition; settings: 10 μM compound prior to washing (Figure 2C)
[7] = tested on: human cells; settings: requires long (>10 hour) pre-incubation of cells with compound; cited from earlier work
[8] = Glutathione stability / reactivity experiment; assay type: physicochemical; settings: 37 °C, DMSO, five-fold molar excess of glutathione, HPLC, up to 24 hours
[9] = 60 μM, compared with 1 at 20 μM

Q: Which “sensitization of cells to ionizing radiation” value [1] does the source give for C[C@@]12CCC(=O)c3coc(c31)C(=O)c1cc3c(cc12)C(=O)C=CC3=O [halenaquinone] here?
A: Its value is “not capable of sensitizing cells to ionizing radiation”.

Q: Which “sensitization of cells to MMC” value [2] does the source give for O=C1C(Cl)=C(N2CCOCC2)C(=O)N1c1ccc(Cl)c(Cl)c1 [compound 1] here?
A: Its value is “significant sensitization of cells”.

Q: And the “effect on HR efficiency” value ([3]; 20 μM)?
A: The value was “inhibition of HR”.

Q: What about the “time dependence of inhibition of RAD51 DNA binding activity” value [4] of the same compound?
A: The value was “time-dependent”.

Q: What about the “effect on SSA efficiency” value ([5]; 20 μM) of the same compound?
A: Its value is “stimulation of SSA”.

Q: What about the “RAD51 DNA binding activity after compound treatment on beads and washing” value [6] of the same compound?
A: The value was “significantly inactivated”.

Q: Which “sensitization of cells to cross-linking chemotherapeutic drugs” value [7] does the source give for O=c1c2ccccc2nc(/C=C/c2cccnc2)n1Cc1ccccc1 [B02] here?
A: The value was “does successfully sensitize cells”.

Q: Which “sensitization of cells to MMC” value [2] does the source give for COc1ccc(C2=C(N3CCOCC3)C(=O)N(c3ccc(Cl)c(Cl)c3)C2=O)cc1 [7a, 1-(3,4-dichlorophenyl)-3-(4-methoxyphenyl)-4-morpholino-1H-pyrrole-2,5-dione] here?
A: The value was “significant sensitization of cells”.

Q: And the “effect on HR efficiency” value [3, 9]?
A: The value was “very similar effects”.

Q: What about the “time dependence of inhibition of RAD51 DNA binding activity” value [4] of the same compound?
A: The value was “did not observe any time-dependent increase”.

Q: What about the reactivity with glutathione [8] of the same compound?
A: Its reactivity with glutathione is “no reactivity”.

Q: What about the “effect on SSA efficiency” value [5, 9] of the same compound?
A: Its value is “very similar effects”.
